Laboratory results taken from BindingDB's records for doi:10.7270/Q20K28JQ (Dupont Pharmaceuticals, 1996).
pIC50: −log10 of the molar value.

What follows are compounds tested against T1, Sterol O-acyltransferase 1 (Rattus norvegicus, UniProt O70536) (assay: ChEBML_28359).
T1 sequence (O70536 whole entry): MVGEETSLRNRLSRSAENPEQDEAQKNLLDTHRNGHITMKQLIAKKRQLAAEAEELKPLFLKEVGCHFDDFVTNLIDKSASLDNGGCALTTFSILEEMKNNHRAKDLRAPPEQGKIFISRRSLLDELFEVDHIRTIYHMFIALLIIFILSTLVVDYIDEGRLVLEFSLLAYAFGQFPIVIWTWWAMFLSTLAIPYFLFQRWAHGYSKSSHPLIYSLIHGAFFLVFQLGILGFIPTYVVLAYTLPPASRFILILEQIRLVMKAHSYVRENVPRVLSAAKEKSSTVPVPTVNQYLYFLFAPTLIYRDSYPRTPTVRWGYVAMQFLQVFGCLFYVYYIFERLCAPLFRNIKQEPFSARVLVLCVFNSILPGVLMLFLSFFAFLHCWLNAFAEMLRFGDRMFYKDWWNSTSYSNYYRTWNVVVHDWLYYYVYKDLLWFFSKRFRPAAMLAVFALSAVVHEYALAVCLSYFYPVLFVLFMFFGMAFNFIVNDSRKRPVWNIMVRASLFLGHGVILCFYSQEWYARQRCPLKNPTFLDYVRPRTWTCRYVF
From the text: In vitro inhibition of rat liver microsomal Acyl coenzyme A:cholesterol acyltransferase

pIC50	Structure (SMILES)
5.72	CN(C(=O)c1ccc(C#N)cc1)C1N(C)C(c2ccc(C#N)cc2)=NC1(C(F)(F)F)C(F)(F)F (stereo not drawn)
6.00	CN(C(=O)c1ccc(C#N)cc1)[C@H]1N(C)C(c2ccc(C#N)cc2)=NC1(C(F)(F)F)C(F)(F)F
4.26	CN(C(=O)c1ccc(C#N)cc1)[C@@H]1N(C)C(c2ccc(C#N)cc2)=NC1(C(F)(F)F)C(F)(F)F
